# Source: ChEMBL document CHEMBL3621173, “Evaluation of functional groups as acetyl-lysine mimetics for BET bromodomain inhibition” (Medchemcomm, 2014)
# Calls of active or inactive are those of the source. No cut-off for these calls is given here.
# Key:
# [1] = biological target: T1, Bromodomain-containing protein 4 (Homo sapiens, UniProt O60885); assay: Inhibition of BRD4 (D1) (unknown origin) at 5 uM incubated for 30 mins using histone H4 peptide (1-21) K5/8/12/16Ac-biotin by alpha screen assay
# [2] = biological target: T2, Bromodomain-containing protein 3 (Homo sapiens, UniProt Q15059); assay: Inhibition of BRD3 (D1) (unknown origin) incubated for 30 mins using histone H4 peptide (1-21) K5/8/12/16Ac-biotin by alpha screen assay
# Target sequence in this assay (Q15059 whole entry): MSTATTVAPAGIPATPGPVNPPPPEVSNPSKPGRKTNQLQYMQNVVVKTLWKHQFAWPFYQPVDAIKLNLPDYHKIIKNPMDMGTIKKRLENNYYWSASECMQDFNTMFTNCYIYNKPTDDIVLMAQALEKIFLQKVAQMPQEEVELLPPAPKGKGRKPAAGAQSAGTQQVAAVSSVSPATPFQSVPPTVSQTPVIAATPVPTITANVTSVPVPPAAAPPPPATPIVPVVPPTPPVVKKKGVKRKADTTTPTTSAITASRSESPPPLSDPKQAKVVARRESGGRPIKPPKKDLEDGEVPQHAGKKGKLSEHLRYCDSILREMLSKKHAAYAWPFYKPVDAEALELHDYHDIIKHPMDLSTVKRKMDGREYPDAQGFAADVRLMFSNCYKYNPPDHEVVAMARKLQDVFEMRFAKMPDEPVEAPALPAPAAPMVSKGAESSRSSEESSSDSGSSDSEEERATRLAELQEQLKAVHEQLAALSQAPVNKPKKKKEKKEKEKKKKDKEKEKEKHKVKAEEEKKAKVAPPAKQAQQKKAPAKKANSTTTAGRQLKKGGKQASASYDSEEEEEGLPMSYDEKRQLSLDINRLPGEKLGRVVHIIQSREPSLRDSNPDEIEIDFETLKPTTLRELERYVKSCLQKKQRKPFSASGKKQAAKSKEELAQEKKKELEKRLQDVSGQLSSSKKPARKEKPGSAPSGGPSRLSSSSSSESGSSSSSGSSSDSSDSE
# [3] = biological target: T1, Bromodomain-containing protein 4; assay: Inhibition of BRD4 (D1) (unknown origin) incubated for 30 mins using histone H4 peptide (1-21) K5/8/12/16Ac-biotin by alpha screen assay
# [4] = biological target: T2, Bromodomain-containing protein 3; assay: Inhibition of BRD3 (D1) (unknown origin) at 5 uM incubated for 30 mins using histone H4 peptide (1-21) K5/8/12/16Ac-biotin by alpha screen assay
# Target sequence in this assay (Q15059 2-726 limits assumed): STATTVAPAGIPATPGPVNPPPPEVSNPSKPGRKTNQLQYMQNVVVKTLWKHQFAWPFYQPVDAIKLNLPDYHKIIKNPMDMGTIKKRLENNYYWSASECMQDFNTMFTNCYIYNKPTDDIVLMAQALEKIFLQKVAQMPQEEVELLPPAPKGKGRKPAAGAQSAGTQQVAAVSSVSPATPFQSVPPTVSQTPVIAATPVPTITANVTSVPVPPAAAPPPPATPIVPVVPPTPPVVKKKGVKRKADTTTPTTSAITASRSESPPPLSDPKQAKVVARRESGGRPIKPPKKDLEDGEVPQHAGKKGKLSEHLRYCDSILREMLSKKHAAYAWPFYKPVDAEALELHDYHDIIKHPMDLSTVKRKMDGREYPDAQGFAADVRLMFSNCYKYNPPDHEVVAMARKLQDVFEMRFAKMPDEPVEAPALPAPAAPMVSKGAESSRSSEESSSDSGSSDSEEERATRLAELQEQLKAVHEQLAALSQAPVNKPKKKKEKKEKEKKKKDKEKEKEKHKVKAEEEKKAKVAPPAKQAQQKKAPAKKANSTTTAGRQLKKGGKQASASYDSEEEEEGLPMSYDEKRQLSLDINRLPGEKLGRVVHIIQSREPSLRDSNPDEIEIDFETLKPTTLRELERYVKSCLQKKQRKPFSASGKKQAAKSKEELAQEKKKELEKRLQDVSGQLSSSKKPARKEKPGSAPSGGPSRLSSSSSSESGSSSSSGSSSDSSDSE
# [5] = biological target: Bromodomain-containing protein 2 (Homo sapiens) (UniProt P25440); assay: Inhibition of BRD2 (D1) (unknown origin) at 5 uM incubated for 30 mins using histone H4 peptide (1-21) K5/8/12/16Ac-biotin by alpha screen assay
# Bromodomain-containing protein 2 (Homo sapiens), sequence (P25440 whole entry, looked up): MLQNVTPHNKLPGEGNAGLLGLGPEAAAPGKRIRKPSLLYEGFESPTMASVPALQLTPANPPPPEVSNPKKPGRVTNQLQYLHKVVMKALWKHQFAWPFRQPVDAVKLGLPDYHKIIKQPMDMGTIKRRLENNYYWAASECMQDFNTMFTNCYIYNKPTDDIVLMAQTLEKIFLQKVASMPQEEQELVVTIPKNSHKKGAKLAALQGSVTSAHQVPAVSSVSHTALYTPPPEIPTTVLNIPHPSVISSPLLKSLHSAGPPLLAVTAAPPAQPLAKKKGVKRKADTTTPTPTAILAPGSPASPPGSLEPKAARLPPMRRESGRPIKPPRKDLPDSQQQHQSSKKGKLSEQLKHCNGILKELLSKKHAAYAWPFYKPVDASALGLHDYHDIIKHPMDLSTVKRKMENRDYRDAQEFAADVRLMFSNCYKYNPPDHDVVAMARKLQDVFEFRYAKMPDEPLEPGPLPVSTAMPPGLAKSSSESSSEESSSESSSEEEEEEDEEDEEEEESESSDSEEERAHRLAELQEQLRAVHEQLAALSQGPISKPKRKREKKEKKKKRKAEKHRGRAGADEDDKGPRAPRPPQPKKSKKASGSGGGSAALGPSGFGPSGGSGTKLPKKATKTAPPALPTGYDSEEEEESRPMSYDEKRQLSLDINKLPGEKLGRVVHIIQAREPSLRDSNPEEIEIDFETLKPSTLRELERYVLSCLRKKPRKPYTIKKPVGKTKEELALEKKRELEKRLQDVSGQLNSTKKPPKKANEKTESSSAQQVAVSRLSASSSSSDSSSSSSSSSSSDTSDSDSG
# [6] = Degradation half-life in mouse liver microsomes; format: ADME
# [7] = Intrinsic clearance in human liver microsomes; format: ADME; conditions: read-out: CLH
# [8] = Intrinsic clearance in rat liver microsomes; format: ADME; conditions: read-out: CLH
# [9] = Intrinsic clearance in mouse liver microsomes; format: ADME; conditions: read-out: CLH
# [10] = Degradation half-life in rat liver microsomes; format: ADME
# [11] = Degradation half-life in human liver microsomes; format: ADME
Compound,inhibition [1],inhibition [4],inhibition [5],also measured
Cc1ccc(-n2cnnc2C)cc1S(=O)(=O)NC1CCCC1,inactive,inactive,inactive,IC50 [2]: ≥ 10 µM; IC50 [3]: ≥ 10 µM
COc1ccc(-c2cnc(N)nc2)cc1S(=O)(=O)NC1CCCC1,inactive,inactive,inactive,–
Cc1sc2c(c1C)C(c1ccc(Cl)cc1)=N[C@@H](CC(=O)OC(C)(C)C)c1nnc(C)n1-2,–,–,–,half-life [6]: 0.117 h; microsomal CLint [7]: 136 µL/min/mg; microsomal CLint [8]: 129 µL/min/mg; microsomal CLint [9]: 166 µL/min/mg
CC(=O)NCc1ccc(C)c(S(=O)(=O)NC2CCCC2)c1,inactive,inactive,inactive,–
COc1ccc(-c2c(C)nn(C)c2C)cc1S(=O)(=O)NC1CCCC1,inactive,inactive,inactive,–
COc1ccc(-c2ccncc2)cc1S(=O)(=O)NC1CCCC1,inactive,inactive,inactive,–
COc1ccc(-c2ccsc2C)cc1S(=O)(=O)NC1CCCC1,inactive,inactive,inactive,–
Cc1ccc(-c2nnn(C)n2)cc1S(=O)(=O)NC1CCCC1,inactive,inactive,inactive,–
COc1ccc(-c2cccc(N)c2C)cc1S(=O)(=O)NC1CCCC1,inactive,inactive,inactive,–
COc1ccc(-c2cc(N)ccc2C)cc1S(=O)(=O)NC1CCCC1,inactive,inactive,inactive,–
COc1ccc(-c2cn[nH]c2)cc1S(=O)(=O)NC1CCCC1,inactive,inactive,inactive,–
Cc1ccc(-c2c(C)noc2C)cc1S(=O)(=O)NC1CCCC1,Active,Active,Active,half-life [10]: 0.0333 h; half-life [11]: 0.117 h; half-life [6]: 0.0667 h; microsomal CLint [7]: 246 µL/min/mg; microsomal CLint [8]: 711 µL/min/mg; microsomal CLint [9]: 461 µL/min/mg
COc1ccc(-c2cc[n+]([O-])cc2)cc1S(=O)(=O)NC1CCCC1,inactive,inactive,inactive,–
COc1ccc(-c2cccc(NC(C)=O)c2)cc1S(=O)(=O)NC1CCCC1,inactive,inactive,inactive,–
COc1ccc(-c2ccc(N)nc2)cc1S(=O)(=O)NC1CCCC1,inactive,inactive,inactive,–
COc1ccc(-c2ccccc2NS(C)(=O)=O)cc1S(=O)(=O)NC1CCCC1,inactive,inactive,inactive,–
COc1ccc(-c2ccsc2)cc1S(=O)(=O)NC1CCCC1,inactive,inactive,inactive,–

Compound,inhibition [1],inhibition [4],inhibition [5],also measured
COc1ccc(-c2ccc(N)nc2C)cc1S(=O)(=O)NC1CCCC1,Active,Active,Active,–
COc1ccc(-c2c(C)n[nH]c2C)cc1S(=O)(=O)NC1CCCC1,Active,Active,Active,IC50 [2]: 1.32 µM; IC50 [3]: 2.89 µM
COc1ccc(-c2ccc(NC(C)=O)cc2)cc1S(=O)(=O)NC1CCCC1,inactive,inactive,inactive,–
CC(=O)Nc1ccc(C)c(S(=O)(=O)NC2CCCC2)c1,inactive,inactive,inactive,–
COc1ccc(-c2cnn(C)n2)cc1S(=O)(=O)NC1CCCC1,Active,–,–,IC50 [2]: 10 µM; IC50 [3]: 4 µM
Cc1ccc(NS(C)(=O)=O)cc1S(=O)(=O)NC1CCCC1,inactive,inactive,inactive,–
COc1ccc(-c2c(C)noc2C)cc1S(=O)(=O)NC1CCCC1,Active,Active,Active,IC50 [2]: 0.2 µM; IC50 [3]: 1.2 µM
COc1ccc(-c2ccc(N)[n+]([O-])c2C)cc1S(=O)(=O)NC1CCCC1,Active,Active,–,–
Cc1ccc(-n2c(C)nnc2C)cc1S(=O)(=O)NC1CCCC1,inactive,inactive,inactive,IC50 [2]: ≥ 10 µM; IC50 [3]: ≥ 10 µM; half-life [10]: 1.78 h; half-life [11]: 2.88 h; half-life [6]: 1.42 h; microsomal CLint [7]: 10 µL/min/mg; microsomal CLint [8]: 16 µL/min/mg; microsomal CLint [9]: 20 µL/min/mg
COc1ccc(-c2ccc(N)cc2C)cc1S(=O)(=O)NC1CCCC1,inactive,inactive,inactive,–
COc1ccc(-c2cn(C)nn2)cc1S(=O)(=O)NC1CCCC1,inactive,inactive,inactive,–
COc1ccc(-c2ccnn2C)cc1S(=O)(=O)NC1CCCC1,Active,Active,Active,IC50 [2]: 1.71 µM; IC50 [3]: 10.1 µM
COc1cc2c(cc1-c1c(C)noc1C)ncc1[nH]c(=O)n([C@H](C)c3ccccn3)c12,–,–,–,half-life [10]: 3.45 h; half-life [11]: 3.9 h; half-life [6]: > 4.12 h; microsomal CLint [7]: 7 µL/min/mg; microsomal CLint [8]: 8 µL/min/mg; microsomal CLint [9]: < 7 µL/min/mg
COc1ccc(-c2cccnc2)cc1S(=O)(=O)NC1CCCC1,inactive,inactive,inactive,–
Cc1nc(-c2ccc(C)c(S(=O)(=O)NC3CCCC3)c2)no1,inactive,inactive,inactive,–
Cc1ccc(-c2nnnn2C)cc1S(=O)(=O)NC1CCCC1,inactive,inactive,inactive,–
